In publication PMC8846605 (European journal of medicinal chemistry, 2021):

Experiments:
MCF7 cells = assay: CS-BLI cell viability assay, MCF7; type: cell-based
[1] = target: eIF4E (GST-eIF4E) / fluorescein-labelled eIF4G peptide (Homo sapiens, UniProt P06730); assay: Fluorescence polarization assay for displacement of eIF4G peptide from eIF4E; type: binding; conditions: three concentrations: 33, 100 and 300 μM
Kelly cells proteome = assay: Global quantitative proteomics in Kelly cells; type: cell-based, human; conditions: 1 μM, 5 hours, relative to DMSO
Cereblon (CRBN) = Cereblon (CRBN) (Homo sapiens, UniProt Q96SW2); assay: Cellular Cereblon engagement assay; type: cell-based
Chain of Cereblon (CRBN) (Q96SW2 whole entry): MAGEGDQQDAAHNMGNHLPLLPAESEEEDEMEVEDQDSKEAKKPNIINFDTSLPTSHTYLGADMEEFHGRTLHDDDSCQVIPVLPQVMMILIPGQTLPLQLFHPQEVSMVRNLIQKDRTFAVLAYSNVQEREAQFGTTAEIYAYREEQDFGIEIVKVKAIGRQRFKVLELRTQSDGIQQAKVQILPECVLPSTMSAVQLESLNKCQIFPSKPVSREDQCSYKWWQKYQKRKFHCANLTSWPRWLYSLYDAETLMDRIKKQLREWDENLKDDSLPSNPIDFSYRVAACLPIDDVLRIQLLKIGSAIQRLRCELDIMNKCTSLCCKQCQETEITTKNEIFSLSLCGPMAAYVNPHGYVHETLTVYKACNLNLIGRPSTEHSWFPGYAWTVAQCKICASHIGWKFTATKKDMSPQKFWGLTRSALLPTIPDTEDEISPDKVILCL

eIF4E = eIF4E (Homo sapiens, UniProt P06730); assay: eIF4E degradation in HEK293T cells by immunoblotting; type: cell-based; conditions: 0.1-10 μM for 24 h, and 1 μM for 0.5 h to 24 h
Chain of eIF4E (P06730 whole entry): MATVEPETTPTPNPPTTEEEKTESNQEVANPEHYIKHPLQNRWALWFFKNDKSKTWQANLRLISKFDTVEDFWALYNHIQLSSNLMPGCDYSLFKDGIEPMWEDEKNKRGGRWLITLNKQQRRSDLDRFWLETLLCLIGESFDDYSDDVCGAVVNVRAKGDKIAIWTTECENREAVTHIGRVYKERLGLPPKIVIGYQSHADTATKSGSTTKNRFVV

GB1-eIF4E = GB1-eIF4E (Homo sapiens, UniProt P06730); assay: Solution NMR titration; conditions: 15N-labelled GB1-eIF4E 100 μM, compound 50, 100 and 300 μM
Chain of GB1-eIF4E (P06730 whole entry): as above

Chain of eIF4E (GST-eIF4E) / fluorescein-labelled eIF4G peptide (P06730 whole entry): as above

`O=C(O)C(Cc1ccccc1[N+](=O)[O-])=NNc1nc(-c2ccc(Cl)c(Cl)c2)cs1` [4EGI-1, reference compound] was tested, and the “decrease in viability (IC50) at 72 h as compared to 24 h” value (MCF7 cells) was 2 fold.
In the case of `O=C(COc1cccc2c1C(=O)N(C1CCC(=O)NC1=O)C2=O)NCCCCNC(=O)Cc1sc(N/N=C(\Cc2ccccc2[N+](=O)[O-])C(=O)O)nc1-c1ccc(Cl)c(Cl)c1` (centres unmarked) [d4E-1], the “displacement of the 4G peptide compared with 4EGI-1” value [1] is reported as “displaced the 4G peptide in a similar manner”.
For `C/C(=N\Nc1nc(-c2ccc(-c3ccccc3)cc2)cs1)C(=O)NCCCCNc1cccc2c1C(=O)N(C1CCC(=O)NC1=O)C2=O` (centres unmarked) [d4E-2], the “change in protein expression, IMiD neo-substrates” value (Kelly cells proteome) was “downregulation of C2H2 zinc finger targets, SALL4, ZNF692 and ZNF827”.
In the case of `O=C1CCC(N2C(=O)c3cccc(NCCCCNC(=O)/C(=N\Nc4nc(-c5ccc(-c6ccccc6)cc5)cs4)c4ccccc4[N+](=O)[O-])c3C2=O)C(=O)N1` (centres unmarked) [d4E-3], the “fold less active than d4E-2 in cellular CRBN engagement” value (Cereblon (CRBN)) is reported as “approximately 8 fold”.
In the case of `C/C(=N\Nc1nc(-c2ccc(-c3ccccc3)cc2)cs1)C(=O)NCCNc1cccc2c1C(=O)N(C1CCC(=O)NC1=O)C2=O` (centres unmarked) [d4E-4], the “degradation of eIF4E by immunoblotting” value (eIF4E) is reported as “neither experiment showed significant degradation of eIF4E” and the “chemical shift perturbations (CSPs) on titration” value (GB1-eIF4E) is reported as “Significant CSPs were observed in both cases at the binding interface”.
With `C/C(=N\Nc1nc(-c2ccc(Cl)c(Cl)c2)c(CC(=O)NCCNc2cccc3c2C(=O)N(C2CCC(=O)NC2=O)C3=O)s1)C(=O)OCOC(=O)C(C)(C)C` (centres unmarked) [d4E-6] the “degradation of eIF4E by immunoblotting” value (eIF4E) was “neither experiment showed significant degradation of eIF4E”.
With `O=C(O)/C(Cc1ccccc1[N+](=O)[O-])=N\Nc1nc(-c2ccc(-c3ccccc3)cc2)cs1` [i4EG-BiP] the “decrease in viability (IC50) at 72 h as compared to 24 h” value (MCF7 cells) was “more than 3 fold”.
